Target: T1, T1R umami taste receptor (Homo sapiens, UniProt Q7RTX0+Q7RTX1)
T1 sequence (Q7RTX1 21-841): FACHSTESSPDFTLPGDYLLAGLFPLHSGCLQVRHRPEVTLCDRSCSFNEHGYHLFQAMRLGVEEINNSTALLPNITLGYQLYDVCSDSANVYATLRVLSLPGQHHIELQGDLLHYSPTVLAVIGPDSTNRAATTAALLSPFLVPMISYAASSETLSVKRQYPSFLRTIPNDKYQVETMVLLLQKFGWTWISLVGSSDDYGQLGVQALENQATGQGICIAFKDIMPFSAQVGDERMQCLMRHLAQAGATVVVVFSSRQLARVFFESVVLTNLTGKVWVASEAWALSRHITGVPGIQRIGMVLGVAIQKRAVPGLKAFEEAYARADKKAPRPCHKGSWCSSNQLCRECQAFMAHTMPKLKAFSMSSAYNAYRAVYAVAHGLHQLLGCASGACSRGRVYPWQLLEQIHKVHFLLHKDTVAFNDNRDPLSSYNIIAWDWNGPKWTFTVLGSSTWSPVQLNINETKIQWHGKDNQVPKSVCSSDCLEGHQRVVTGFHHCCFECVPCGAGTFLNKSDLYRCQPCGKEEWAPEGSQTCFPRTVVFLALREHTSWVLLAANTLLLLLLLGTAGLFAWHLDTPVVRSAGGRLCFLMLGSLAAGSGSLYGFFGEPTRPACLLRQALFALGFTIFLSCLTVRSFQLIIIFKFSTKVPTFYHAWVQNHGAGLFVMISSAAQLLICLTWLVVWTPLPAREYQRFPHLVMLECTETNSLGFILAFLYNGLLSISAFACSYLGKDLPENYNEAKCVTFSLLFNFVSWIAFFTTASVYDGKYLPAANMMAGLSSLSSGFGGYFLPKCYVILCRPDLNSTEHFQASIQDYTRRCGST
T1 sequence (Q7RTX0 21-852): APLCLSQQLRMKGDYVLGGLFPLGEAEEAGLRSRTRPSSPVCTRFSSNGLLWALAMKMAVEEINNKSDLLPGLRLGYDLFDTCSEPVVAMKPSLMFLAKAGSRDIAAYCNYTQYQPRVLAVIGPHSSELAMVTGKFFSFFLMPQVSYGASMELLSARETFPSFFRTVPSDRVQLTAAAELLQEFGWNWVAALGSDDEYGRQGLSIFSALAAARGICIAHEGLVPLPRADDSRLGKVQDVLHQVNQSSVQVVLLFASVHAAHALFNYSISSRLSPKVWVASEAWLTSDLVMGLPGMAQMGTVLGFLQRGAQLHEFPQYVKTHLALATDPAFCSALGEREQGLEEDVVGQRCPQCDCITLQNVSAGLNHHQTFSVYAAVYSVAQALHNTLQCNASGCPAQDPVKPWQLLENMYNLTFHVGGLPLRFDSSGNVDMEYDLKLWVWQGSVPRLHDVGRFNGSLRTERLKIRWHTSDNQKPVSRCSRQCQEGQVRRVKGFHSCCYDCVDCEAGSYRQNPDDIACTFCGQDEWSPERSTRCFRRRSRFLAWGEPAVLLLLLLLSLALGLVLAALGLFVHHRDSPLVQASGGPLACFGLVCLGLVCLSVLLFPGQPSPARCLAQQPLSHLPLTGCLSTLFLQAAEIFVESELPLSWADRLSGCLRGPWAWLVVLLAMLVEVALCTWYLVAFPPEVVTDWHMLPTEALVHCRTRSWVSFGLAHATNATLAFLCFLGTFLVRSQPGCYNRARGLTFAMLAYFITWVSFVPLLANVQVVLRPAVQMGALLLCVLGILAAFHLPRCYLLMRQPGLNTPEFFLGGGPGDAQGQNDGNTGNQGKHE
Test: in vitro cell-based assay, cells expressing the T1R umami taste receptor; enhancement of MSG
Conditions: for MSG Enh. Ratio: MSG enhancement ratio at a particular concentration (concentration not given); for EC50: cells that express the T1R umami taste receptor, dose-binding curves; for MSG Enh. Ratio @ [10 uM]: compound at 10 uM
Experimental: Each of Compounds 101-145 was synthesized according to one of the general procedures set forth above in Examples 1 and Example 2. Thereafter, the compounds were tested in an in vitro cell-based assay having cells that express the T1R umami taste receptor. Dose-binding curves were recorded and the EC50 was determined for enhancement of MSG binding. Table 2 sets forth the calculated EC50 values for certain tested compounds as well as the MSG enhancement ratio at a particular concentration.

Row | Structure (SMILES) | MSG Enh. Ratio | EC50 [µM] | MSG Enh. Ratio @ [10 uM]
1 | CCC(C)[C@@H](CO)NC(=O)/C=C/c1ccc(OC)cc1 (stereo in doubt) [Compound 115, (E)-N-((2S,3R)-1-hydroxy-3-methylpentan-2-yl)-3-(4-methoxyphenyl)acrylamide] | 1.5 | > 50 | 
2 | CC(C)c1ccc(C(=O)N[C@H](CO)Cc2ccccc2)cc1 [Compound 101, (S)-N-(1-hydroxy-3-phenylpropan-2-yl)-4-isopropylbenzamide] | 1.4 | > 50 | 
3 | CC(C)C[C@@H](CO)NC(=O)c1ccc(C(C)C)cc1 [Compound 102, (S)-N-(1-hydroxy-4-methylpentan-2-yl)-4-isopropylbenzamide] | 1.4 | > 50 | 
4 | CC[C@H](C)[C@@H](CO)NC(=O)c1ccc(C(C)C)cc1 [Compound 103, N-((2S,3S)-1-hydroxy-3-methylpentan-2-yl)-4-isopropylbenzamide] | 1.2 | > 50 | 
5 | Cc1ccc(C(=O)N[C@H](CO)CC(C)C)cc1C [Compound 104, (S)-N-(1-hydroxy-4-methylpentan-2-yl)-3,4-dimethylbenzamide] | 2.8 | > 50 | 
6 | Cc1ccc(C(=O)N[C@H](CO)Cc2ccccc2)cc1C [Compound 105, (S)-N-(1-hydroxy-3-phenylpropan-2-yl)-3,4-dimethylbenzamide] | 3.4 | > 50 | 
7 | CC[C@H](C)[C@@H](CO)NC(=O)c1ccc(C)c(C)c1 [Compound 106, N-((2S,3S)-1-hydroxy-3-methylpentan-2-yl)-3,4-dimethylbenzamide] | 2.5 | > 50 | 
8 | COc1cc(OC)cc(C(=O)N[C@H](CO)Cc2ccccc2)c1 [Compound 107, (S)-N-(1-hydroxy-3-phenylpropan-2-yl)-3,5-dimethoxybenzamide] | 1.9 | > 50 | 
9 | COc1cc(OC)cc(C(=O)N[C@H](CO)CC(C)C)c1 [Compound 108, (S)-N-(1-hydroxy-4-methylpentan-2-yl)-3,5-dimethoxybenzamide] | 1.3 | > 50 | 
10 | CC[C@H](C)[C@@H](CO)NC(=O)c1cc(OC)cc(OC)c1 [Compound 109, N-((2S,3S)-1-hydroxy-3-methylpentan-2-yl)-3,5-dimethoxybenzamide] | 1.1 | > 50 | 
11 | CC[C@H](C)[C@@H](CO)NC(=O)c1ccc2c(c1)OCO2 [Compound 110, N-((2S,3S)-1-hydroxy-3-methylpentan-2-yl) benzo[d][1,3]dioxole-5-carboxamide] | 1.4 | > 50 | 
12 | O=C(N[C@H](CO)Cc1ccccc1)c1ccc2c(c1)OCO2 [Compound 111, (S)-N-(1-hydroxy-3-phenylpropan-2-yl) benzo[d][1,3]dioxole-5-carboxamide] | 1.8 | > 50 | 
13 | CC(C)C[C@@H](CO)NC(=O)c1ccc2c(c1)OCO2 [Compound 112, (S)-N-(1-hydroxy-4-methylpentan-2-yl) benzo[d][1,3]dioxole-5-carboxamide] | 2.3 | > 50 | 
14 | COc1cccc(C(=O)N[C@H](CO)Cc2ccccc2)c1O [Compound 113, (S)-2-hydroxy-N-(1-hydroxy-3-phenylpropan-2-yl)-3-methoxybenzamide] | 1.6 | > 50 | 
15 | COc1ccc(/C=C/C(=O)N[C@H](CO)CC(C)C)cc1 [Compound 114, (S,E)-3-(4-methoxyphenyl)-N-(1-hydroxy-4-methylpentan-2-yl)acrylamide] | 1.7 | > 50 | 
16 | COc1ccc(/C=C/C(=O)N[C@H](CO)Cc2ccccc2)cc1 [Compound 116, (S,E)-3-(4-methoxyphenyl)-N-(1-hydroxy-3-phenylpropan-2-yl)acrylamide] |  | 11 | 6.9 @ [10 uM]
17 | CCOc1ccc(/C=C/C(=O)N[C@H](CO)CC(C)C)cc1 [Compound 117, (S,E)-3-(4-ethoxyphenyl)-N-(1-hydroxy-4-methylpentan-2-yl)acrylamide] | 6.8 | ~25 | 

Row | Structure (SMILES) | MSG Enh. Ratio | EC50 [µM] | MSG Enh. Ratio @ [10 uM]
18 | CCOc1ccc(/C=C/C(=O)N[C@H](CO)[C@@H](C)CC)cc1 [Compound 118, (E)-3-(4-ethoxyphenyl)-N-((2S,3S)-1-hydroxy-3-methylpentan-2-yl)acrylamide] | 6.0 | ~40 | 
19 | CCOc1ccc(/C=C/C(=O)N[C@H](CO)Cc2ccccc2)cc1 [Compound 119, (S,E)-3-(4-ethoxyphenyl)-N-(1-hydroxy-3-phenylpropan-2-yl)acrylamide] |  | 10 | 6.1 @ [10 uM]
20 | Cc1ccc(C(=O)N[C@H](Cc2ccccc2)C(=O)O)cc1 [Compound 120, (4-methylbenzoyl)-D-phenylalanine] | 1.3 | > 50 | 
21 | Cc1ccc(C(=O)N[C@H](C(=O)O)C(C)C)cc1C [Compound 121, (3,4-dimethylbenzoyl)-L-valine] | 1.1 | > 50 | 
22 | Cc1ccc(C(=O)N[C@@H](CC(C)C)C(=O)O)cc1 [Compound 123, (4-methylbenzoyl)-L-leucine] | 1.2 | > 50 | 
23 | Cc1ccc(C(=O)N[C@@H](C(=O)O)C(C)C)cc1C [Compound 124, (3,4-dimethylbenzoyl)-D-valine] | 1.2 | > 50 | 
24 | Cc1ccc(C(=O)N[C@H](Cc2ccccc2)C(=O)O)cc1C [Compound 125, (3,4-dimethylbenzoyl)-D-phenylalanine] | 1.3 | > 50 | 
25 | Cc1ccc(C(=O)N[C@H](CC(C)C)C(=O)O)cc1C [Compound 126, (3,4-dimethylbenzoyl)-D-leucine] | 1.8 | 27 | 
26 | COc1ccc(C[C@H](NC(=O)c2ccc(C)c(C)c2)C(=O)O)cc1 [Compound 127, (S)-2-(3,4-dimethylbenzamido)-3-(4-methoxyphenyl) propanoic acid] | 2.0 | > 50 | 
27 | Cc1ccc(C(=O)N[C@@H](CCC(=O)O)C(=O)O)cc1C [Compound 128, (3,4-dimethylbenzoyl)-L-glutamic acid] | 1.4 | > 50 | 
28 | CC(C)C[C@@H](NC(=O)c1ccc2c(c1)OCO2)C(=O)O [Compound 129, (benzo[d][1,3]dioxole-5-carbonyl)-D-leucine] | 3.5 | ~20 | 
29 | O=C(O)CC[C@H](NC(=O)c1ccc2c(c1)OCO2)C(=O)O [Compound 131, (benzo[d][1,3]dioxole-5-carbonyl)-L-glutamic acid] | 1.2 | > 50 | 
30 | CC(C)[C@H](NC(=O)/C=C/c1ccccc1)C(=O)O [Compound 132, Cinnamoyl-L-valine] | 1.7 | > 50 | 
31 | CC(C)C[C@H](NC(=O)/C=C/c1ccccc1)C(=O)O [Compound 133, Cinnamoyl-L-leucine] | 1.1 | > 50 | 
32 | O=C(O)CC[C@H](NC(=O)/C=C/c1ccccc1)C(=O)O [Compound 134, Cinnamoyl-L-glutamate] | 1.2 | > 50 | 
33 | COc1ccc(/C=C/C(=O)N[C@@H](Cc2ccc(OC)cc2)C(=O)O)cc1 [Compound 135, (S,E)-3-(4-methoxyphenyl)-2-(3-(4-methoxyphenyl)acrylamido)propanoic acid] | 2.0 | > 50 | 

Reference: patent US20250176598A1, “AMIDE COMPOUNDS AND THEIR USE AS FLAVOR MODIFIERS” (Firmenich Incorporated, priority 2022, published 2025)
